Holding throughout (type): biochemical
Design in all cases: from tissue; host or cells: mouse brain membrane fraction
Holding throughout (conditions): 30 min preincubation at 37° C.

For experiment [1], the target named is T1, ABHD6 (Mus musculus, UniProt Q8R2Y0).
T1 sequence (Q8R2Y0 1-336): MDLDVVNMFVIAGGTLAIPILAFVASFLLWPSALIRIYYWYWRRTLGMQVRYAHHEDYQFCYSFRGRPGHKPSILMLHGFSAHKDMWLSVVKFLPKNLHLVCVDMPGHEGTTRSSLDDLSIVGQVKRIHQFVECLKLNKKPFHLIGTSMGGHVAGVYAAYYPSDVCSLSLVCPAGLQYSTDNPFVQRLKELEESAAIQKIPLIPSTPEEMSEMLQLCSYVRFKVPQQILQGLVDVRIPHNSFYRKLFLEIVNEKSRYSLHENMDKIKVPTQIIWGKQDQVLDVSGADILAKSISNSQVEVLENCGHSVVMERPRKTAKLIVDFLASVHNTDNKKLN
Put plainly: In vitro competitive activity-based protein profiling (FP-Rh), mouse ABHD6. As to the method: (§1) In Vitro Competitive Activity-Based Protein Profiling.
(§2) Proteomes (mouse brain membrane fraction or cell lysates) (50 μL, 1.0 mg/ml total protein concentration) were preincubated with varying concentrations of inhibitors at 37° C. After 30 min, FP-Rh (1.0 μL, 50 μM in DMSO) was added and the mixture was incubated for another 30 min at 37° C. Reactions were quenched with SDS loading buffer (50 μL—4×) and run on SDS-PAGE.

Experiment [2] deals with T2, FAAH (Mus musculus, UniProt O08914).
T2 sequence (O08914 1-579): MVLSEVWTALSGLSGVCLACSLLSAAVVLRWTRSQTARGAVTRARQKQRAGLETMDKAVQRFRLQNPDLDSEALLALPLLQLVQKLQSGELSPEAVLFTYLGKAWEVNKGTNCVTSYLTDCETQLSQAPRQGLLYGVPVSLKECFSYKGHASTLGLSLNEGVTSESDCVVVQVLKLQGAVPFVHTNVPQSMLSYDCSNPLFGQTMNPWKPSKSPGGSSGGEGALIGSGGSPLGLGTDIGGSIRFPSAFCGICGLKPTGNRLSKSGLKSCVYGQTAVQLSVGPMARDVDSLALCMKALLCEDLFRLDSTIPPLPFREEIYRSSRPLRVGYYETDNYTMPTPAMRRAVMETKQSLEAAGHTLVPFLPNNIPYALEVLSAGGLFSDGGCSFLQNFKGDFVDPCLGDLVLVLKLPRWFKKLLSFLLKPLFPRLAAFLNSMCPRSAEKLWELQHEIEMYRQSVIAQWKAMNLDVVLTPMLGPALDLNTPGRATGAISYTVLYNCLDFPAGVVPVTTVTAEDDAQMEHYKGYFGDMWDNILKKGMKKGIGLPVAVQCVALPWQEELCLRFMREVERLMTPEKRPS
Put plainly: In vitro competitive activity-based protein profiling (FP-Rh), mouse FAAH. How it is done: as §1, §2

The target in experiment [3] is T3, MAGL (Mus musculus, UniProt O35678).
T3 sequence (O35678 1-303): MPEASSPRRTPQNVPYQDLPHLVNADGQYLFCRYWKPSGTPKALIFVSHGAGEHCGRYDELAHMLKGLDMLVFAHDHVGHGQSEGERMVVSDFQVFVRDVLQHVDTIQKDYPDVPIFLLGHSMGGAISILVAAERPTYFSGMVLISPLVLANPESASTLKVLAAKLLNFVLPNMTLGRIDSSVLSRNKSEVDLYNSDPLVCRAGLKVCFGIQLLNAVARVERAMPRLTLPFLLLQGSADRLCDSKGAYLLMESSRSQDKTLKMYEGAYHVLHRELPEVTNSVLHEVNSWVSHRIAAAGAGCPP
Put plainly: In vitro competitive activity-based protein profiling (FP-Rh), mouse MAGL. How it is done:
as §1, §2

Where only a bound is given, the exact number is not on record here.

As to `O=C(ON1C(=O)CCC1=O)N1CCN(Cc2c(Cl)cccc2N2CCCC2)CC1` [Example 97, 2,5-Dioxopyrrolidin-1-yl 4-{[2-chloro-6-(pyrrolidin-1-yl)phenyl]methyl}piperazine-1-carboxylate], the IC50 in experiment [1] (Table 2, mouse proteome) is 100 to 1000 nM; in experiment [2] (Table 2, mouse proteome), over 10000 nM; in experiment [3] (Table 2, mouse proteome), 1000 to 10000 nM.

Turning to `O=C(ON1C(=O)CCC1=O)N1CCN(Cc2ccc(C(F)(F)F)cc2N2CCOCC2)CC1` [Example 91, 2,5-Dioxopyrrolidin-1-yl 4-{[2-(morpholin-4-yl)-4-(trifluoromethyl)phenyl]methyl}piperazine-1-carboxylate], the IC50 in experiment [1] (Table 2, mouse proteome) is 100 to 1000 nM; in experiment [2] (Table 2, mouse proteome), over 10000 nM; in experiment [3] (Table 2, mouse proteome) it was under 100 nM.

On to `Cc1c(CN2CCN(C(=O)ON3C(=O)CCC3=O)CC2)cccc1N1CCOCC1` [Example 121, 2,5-Dioxopyrrolidin-1-yl 4-(2-methyl-3-morpholinobenzyl)piperazine-1-carboxylate], for which the IC50 in experiment [1] (Table 2, mouse proteome) is 100 to 1000 nM; in experiment [2] (Table 2, mouse proteome) it was over 10000 nM; in experiment [3] (Table 2, mouse proteome) it was under 100 nM.

As for `O=C(ON1C(=O)CCC1=O)N1CCN(Cc2ccc(Br)cc2N2CCOCC2)CC1` [Example 66, 2,5-Dioxopyrrolidin-1-yl 4-(4-bromo-2-morpholinobenzyl)piperazine-1-carboxylate], the IC50 was 1000 to 10000 nM in experiment [1] (Table 2, mouse proteome); 1000 to 10000 nM in experiment [2] (Table 2, mouse proteome); under 100 nM in experiment [3] (Table 2, mouse proteome).

In the case of `CN(Cc1cccc(-c2ccncc2)c1)C(=O)ON1C(=O)CCC1=O` [Example 12, 2,5-Dioxopyrrolidin-1-yl N-methyl-N-{[3-(pyridin-4-yl)phenyl]methyl}carbamate], the IC50 was 100 to 1000 nM in experiment [1] (Table 1, mouse proteome); over 10000 nM in experiment [2] (Table 1, mouse proteome); 1000 to 10000 nM in experiment [3] (Table 1, mouse proteome).

`O=C(ON1C(=O)CCC1=O)N1CCC1` [Example 30, 2,5-Dioxopyrrolidin-1-yl azetidine-1-carboxylate]: the IC50 in experiment [1] (Table 1, mouse proteome) was over 10000 nM; in experiment [2] (Table 1, mouse proteome), over 10000 nM; in experiment [3] (Table 1, mouse proteome), over 10000 nM.

For `O=C(ON1C(=O)CC(c2ccccc2)C1=O)N1CCN(C(c2ccc(Cl)cc2)c2ccc(Cl)cc2)CC1` (stereo not drawn) [Example 44, 2,5-Dioxo-3-phenylpyrrolidin-1-yl 4-(bis(4-chlorophenyl)methyl)piperazine-1-carboxylate], the IC50 in experiment [1] (Table 1, mouse proteome) is 1000 to 10000 nM; in experiment [2] (Table 1, mouse proteome), over 10000 nM; in experiment [3] (Table 1, mouse proteome) it was 1000 to 10000 nM.

As to `O=C(ON1C(=O)CCC1=O)N1CCN(Cc2ccc(Cl)cc2N2CCOC3CCCC32)CC1` (stereo not drawn) [Example 131, 2,5-Dioxopyrrolidin-1-yl 4-(4-chloro-2-(hexahydrocyclopenta[b][1,4]oxazin-4(4aH)-yl)benzyl)piperazine-1-carboxylate], the IC50 was 1000 to 10000 nM in experiment [1] (Table 2, mouse proteome); over 10000 nM in experiment [2] (Table 2, mouse proteome); under 100 nM in experiment [3] (Table 2, mouse proteome).

Regarding `O=C(ON1C(=O)CCC1=O)N1CCN(Cc2cccc(Cl)c2N2CCCC2)CC1` [Example 106, 2,5-Dioxopyrrolidin-1-yl 4-{[3-chloro-2-(pyrrolidin-1-yl)phenyl]methyl}piperazine-1-carboxylate], the IC50 was 1000 to 10000 nM in experiment [1] (Table 2, mouse proteome); over 10000 nM in experiment [2] (Table 2, mouse proteome); under 100 nM in experiment [3] (Table 2, mouse proteome).

Take `CN1CC(=O)N(OC(=O)N2CCN(C(c3ccc(Cl)cc3)c3ccc(Cl)cc3)CC2)C1=O` [Example 56, 3-Methyl-2,5-dioxoimidazolidin-1-yl 4-(bis(4-chlorophenyl)methyl)piperazine-1-carboxylate]: the IC50 was 100 to 1000 nM in experiment [1] (Table 1, mouse proteome); over 10000 nM in experiment [2] (Table 1, mouse proteome); under 100 nM in experiment [3] (Table 1, mouse proteome).

Turning to `CN(CCc1ccccc1)C(=O)ON1C(=O)CCC1=O` [Example 15, 2,5-Dioxopyrrolidin-1-yl N-methyl-N-(2-phenylethyl)carbamate], the IC50 in experiment [1] (Table 1, mouse proteome) is over 10000 nM; in experiment [2] (Table 1, mouse proteome), over 10000 nM; in experiment [3] (Table 1, mouse proteome), over 10000 nM.

For the compound `Cc1nc(N2CCCCC2)sc1CN1CCN(C(=O)ON2C(=O)CCC2=O)CC1` [Example 148, 2,5-Dioxopyrrolidin-1-yl 4-((4-methyl-2-(piperidin-1-yl)thiazol-5-yl)methyl)piperazine-1-carboxylate], the IC50 in experiment [1] (Table 2, mouse proteome) was 1000 to 10000 nM; in experiment [2] (Table 2, mouse proteome) it was over 10000 nM; in experiment [3] (Table 2, mouse proteome) it was 1000 to 10000 nM.

Regarding `COc1ccc(N2CCN(C(=O)ON3C(=O)CC(C)(C)C3=O)CC2)cc1` [Example 52, 3,3-Dimethyl-2,5-dioxopyrrolidin-1-yl 4-(4-methoxyphenyl)piperazine-1-carboxylate], the half-maximal inhibitory concentration (IC50) is 100 to 1000 nM in experiment [1] (Table 1, mouse proteome); over 10000 nM in experiment [2] (Table 1, mouse proteome); over 10000 nM in experiment [3] (Table 1, mouse proteome).

`O=C(ON1C(=O)CCC1=O)N1CCN(Cc2ccc(Cl)cc2N2CCCC2)CC1` [Example 74, 2,5-Dioxopyrrolidin-1-yl 4-(4-chloro-2-(pyrrolidin-1-yl)benzyl)piperazine-1-carboxylate]: the half-inhibitory concentration (IC50) in experiment [1] (Table 2, mouse proteome) was 100 to 1000 nM; in experiment [2] (Table 2, mouse proteome), over 10000 nM; in experiment [3] (Table 2, mouse proteome), under 100 nM.

On to `O=C1CCC(=O)N1OC(=O)N1CCCCC1c1ccccc1` (stereo not drawn) [Example 23, 2,5-Dioxopyrrolidin-1-yl 2-phenylpiperidine-1-carboxylate], for which the IC50 in experiment [1] (Table 1, mouse proteome) is over 10000 nM; in experiment [2] (Table 1, mouse proteome), over 10000 nM; in experiment [3] (Table 1, mouse proteome), over 10000 nM.

On to `O=C1CCC(=O)N1OC(=O)N1CCCCC1CO` (stereo not drawn) [Example 11, 2,5-Dioxopyrrolidin-1-yl 2-(hydroxymethyl)piperidine-1-carboxylate], for which the IC50 in experiment [1] (Table 1, mouse proteome) was over 10000 nM; in experiment [2] (Table 1, mouse proteome), over 10000 nM; in experiment [3] (Table 1, mouse proteome) it was over 10000 nM.

`O=C(ON1C(=O)CCC1=O)N1CCN(Cc2ccc(Cl)cc2-n2cccn2)CC1` [Example 84, 2,5-Dioxopyrrolidin-1-yl 4-(4-chloro-2-(1H-pyrazol-1-yl)benzyl)piperazine-1-carboxylate]: the IC50 is 1000 to 10000 nM in experiment [1] (Table 2, mouse proteome); over 10000 nM in experiment [2] (Table 2, mouse proteome); 100 to 1000 nM in experiment [3] (Table 2, mouse proteome).

For `O=C(ON1C(=O)c2ccccc2C1=O)N1CCN(C(c2ccc(Cl)cc2)c2ccc(Cl)cc2)CC1` [Example 33, 1,3-Dioxo-2,3-dihydro-1H-isoindol-2-yl 4-[bis(4-chlorophenyl)methyl]piperazine-1-carboxylate], the IC50 is 100 to 1000 nM in experiment [1] (Table 1, mouse proteome); over 10000 nM in experiment [2] (Table 1, mouse proteome); over 10000 nM in experiment [3] (Table 1, mouse proteome).

Take `COC(=O)c1cc(CN2CCN(C(=O)ON3C(=O)CCC3=O)CC2)ccc1N1CCOCC1` [Example 118, 2,5-Dioxopyrrolidin-1-yl 4-(3-(methoxycarbonyl)-4-morpholinobenzyl)piperazine-1-carboxylate]: the half-inhibitory concentration (IC50) is 1000 to 10000 nM in experiment [1] (Table 2, mouse proteome); over 10000 nM in experiment [2] (Table 2, mouse proteome); 1000 to 10000 nM in experiment [3] (Table 2, mouse proteome).

Take `O=C(ON1C(=O)CCC1=O)N1CCN(Cc2cccc(F)c2N2CCCC2)CC1` [Example 107, 2,5-Dioxopyrrolidin-1-yl 4-{[3-fluoro-2-(pyrrolidin-1-yl)phenyl]methyl}piperazine-1-carboxylate]: the IC50 is 100 to 1000 nM in experiment [1] (Table 2, mouse proteome); over 10000 nM in experiment [2] (Table 2, mouse proteome); under 100 nM in experiment [3] (Table 2, mouse proteome).

As for `O=C(ON1C(=O)CN(Cc2ccccc2)C1=O)N1CCC(CCc2ccc(Cl)cc2)CC1` [Example 50, 3-Benzyl-2,5-dioxoimidazolidin-1-yl 4-(4-chlorophenethyl)piperidine-1-carboxylate], the IC50 in experiment [1] (Table 1, mouse proteome) was under 100 nM; in experiment [2] (Table 1, mouse proteome), under 100 nM; in experiment [3] (Table 1, mouse proteome) it was 100 to 1000 nM.

Consider `O=C1CCC(=O)N1OC(=O)N1CCCCC1Cc1ccccc1` (stereo not drawn) [Example 22, 2,5-Dioxopyrrolidin-1-yl 2-benzylpiperidine-1-carboxylate], for which the IC50 is over 10000 nM in experiment [1] (Table 1, mouse proteome); over 10000 nM in experiment [2] (Table 1, mouse proteome); over 10000 nM in experiment [3] (Table 1, mouse proteome).

`CC(C)C1NC(=O)N(OC(=O)N2CCN(C(c3ccc(Cl)cc3)c3ccc(Cl)cc3)CC2)C1=O` (stereo not drawn) [Example 47, 4-Isopropyl-2,5-dioxoimidazolidin-1-yl 4-(bis(4-chlorophenyl)methyl)piperazine-1-carboxylate]: the IC50 in experiment [1] (Table 1, mouse proteome) is 100 to 1000 nM; in experiment [2] (Table 1, mouse proteome) it was over 10000 nM; in experiment [3] (Table 1, mouse proteome) it was 100 to 1000 nM.

Usually IC50 stands for the concentration at which inhibition is half-maximal. A lower IC50 goes with higher potency.

Source of the values: patent publication US9567302B2, “Carbamate compounds and of making and using same” (Abide Therapeutics, Inc., priority 2012, dated 2017).
